Patent US10093973B2, “Polymerase compositions and methods” (LIFE TECHNOLOGIES CORPORATION, priority 2009, dated 2018)
Where a chain is given by its changes, count along the chain named.

Columns and labels:
[1] = test system: AF647-C6-dG6P and Alexa Fluor 546 dye-labeled primer-template duplex; assay: Stopped-flow measurement of tpol (nucleotide incorporation kinetics); type: biochemical; set-up: unit not given here; conditions: tpol = 1/kpol; 7 μM AF647-C6-dG6P, 330 nM polymerase, 100 nM template/primer duplex, 2 mM MnCl2
Procedure: In this example, the t−1 and tpol values of a Phi-29 polymerase comprising the amino acid sequence of SEQ ID NO: 1 and a modified B103 polymerase comprising the amino acid sequence of SEQ ID NO: 8 (referred to as “mB103 in the table below) and further including amino acid substitutions at various positions were measured using a stopped-flow procedure. The stopped-flow techniques for measuring tpol (1/kpol) followed the techniques described by MP Roettger (2008 Biochemistry 47:9718-9727; M. Bakhtina 2009 Biochemistry 48:3197-320).
Stopped-Flow Measurements of tpol
The template sequence (SEQ ID NO: 44) further included an Alexa Fluor 546 dye moiety bonded to the 5′ position of the template.
The kinetics of nucleotide incorporation by each polymerase was measured in an Applied Photophysics SX20 stopped-flow spectrometer by monitoring changes in fluorescence from the dye-labeled primer-template duplex complexed to enzyme, following the mixing of the enzyme-DNA complex with dye-labeled nucleotides. These dye-labeled nucleotides comprise terminal-phosphate-labeled nucleotides having an alkyl linker with a functional amine group attached to the dye, and have the general structure shown in FIG. 11. This structure includes a sugar bonded to a hexaphosphate chain at the 5′ carbon position, and to a nucleotide base (denoted as “N”). The terminal phosphate group of the hexaphosphate is linked to a 6-carbon linker, and the other end of the 6-carbon linker is attached to a dye moiety (denoted as “dye”), typically through an amide bond. In this example, the particular dye-labeled nucleotide added was a labeled nucleotide hexaphosphate comprising a guanine base at the N (base) position and an Alexa Fluor 647 (AF647) at the dye position, and is referred to herein as “AF647-C6-dG6P”.
The primer and template were annealed to form a dye-labeled primer-template duplex using standard methods. This duplex was preincubated with polymerase. The mixture included 330 nM recombinant DNA polymerase, 100 nM template/primer duplex in buffer (“reaction buffer”) comprising 50 mM Tris-HCl, pH 7.5, 50 mM NaCl, 4 mM DTT, 0.2% BSA, and 2 mM MnCl2. The dye-labeled nucleotide AF647-C6-dG6P was then added to a final concentration of 7 μM, and the resulting fluorescence was monitored over time.
The averaged (5 traces) stopped-flow fluorescence traces (>1.5 ms) were fitted with a double exponential equation (1) to extrapolate the rates of the nucleotide binding and product release, Fluorescence=A1*e^−k1*t+A2*e^−kpol*t+C (equation 1) where A1 and A2 represent corresponding fluorescence amplitudes, C is an offset constant, and k1 and kpol are the observed rate constants for the fast and slow phases of the fluorescence transition, respectively.

[2] = test system: primer-template duplex; assay: Fractional extension activity assay; type: biochemical; conditions: versus reference RB69 (SEQ ID NO: 15) and His-tagged Phi-29 (SEQ ID NO: 20); 330 nM enzyme, 1 μM dNTP, room temperature, 10 seconds
Procedure: The fractional extension activity of an exemplary modified polymerase having the amino acid of SEQ ID NO: 8 (referred to as “B104(exo-)” in FIG. 3) was measured and compared to the fractional extension activities of two different exemplary reference polymerases, including an RB69 reference polymerase comprising the amino acid sequence SEQ ID NO: 15 and a His-tagged Phi-29 reference polymerase comprising the amino acid sequence of SEQ ID NO: 20 (referred to herein as “HP1 polymerase”). All polymerases were prepared according to the method of Example 1. Both modified and reference polymerases were evaluated and compared in an assay to measure the fractional extension activity of each polymerase, i.e., the fraction of nucleic acid templates that are extended by at least one nucleotide in a polymerase reaction. In this assay, the fractional extension activity of a polymerase is defined as the fraction (measured as a percentage fraction) of nucleic acid templates that are extended by at least one nucleotide by the test or reference polymerase under the following reaction conditions: 50 mM Tris, pH 7.0, 50 mM NaCl, 1 mM MnCl2, 1 μM dNTP, 330 nM enzyme, 100 nM primer-template duplex and 0.5% BSA, wherein the extension is performed at room temperature for 10 seconds.
The primer-template duplex was formed by annealing the following polynucleotides: […]

Question: With “mB103 (SEQ ID: 8): B103 polymerase triple mutant with D166A, F383L and D384N” as the substance, how does the tpol [1] read?
Answer: The tpol was 14.

Question: What about the fractional extension activity [2] of the same substance?
Answer: Its fractional extension activity is “higher”.
